Reference: ChEMBL document CHEMBL5543156, “Selective Elimination of Senescent Cancer Cells by Galacto-Modified PROTACs” (J Med Chem, 2024)
The source made the active and inactive calls. The calls are words filed in the database; no cut-off is given here.

Key:
A549 [1] = test: Induction of apoptosis in human senescent A549 cells assessed as late apoptotic cells at 1 uM incubated for 24 hrs by FITC/PI staining based flow cytometry analysis (reference value: 12.2%); assay type: functional
[2] = target: T1, Bromodomain-containing protein 4 (Homo sapiens, UniProt O60885); test: Induction of BRD4 degradation in etoposide-induced human senescent A549 cells pretreated with etoposide for 3 days followed by compound administration and measured after 15 mins by SA-beta-Gal staining assay; assay type: cell-based
A549 [3] = test: Senolytic index, ratio of IC50 for antiproliferative activity against human normal (non-senescent) A549 cells assessed as reduction in cell viability to IC50 for antiproliferative activity against human senescent A549 cells assessed as reduction in cell viability; assay type: functional
A549 [4] = test: Antitumor activity against human A549 cells xenografted in SCID mouse assessed as reduction in BRD4 level in tumor at 20 mg/kg, sc administered daily for 19 days by IHC analysis; assay type: functional, organism-based; details: time 19.0 day
A549 [5] = test: Antiproliferative activity against human senescent A549 cells assessed as reduction in cell viability incubated for 72 hrs by CCK-8 assay; assay type: functional, cell-based; details: A549, 72 h
A549 [6] = test: Antitumor activity against human A549 cells xenografted in SCID mouse assessed as reduction in ki67 level in tumor at 20 mg/kg, sc administered daily for 19 days in presence of etoposide by IHC analysis; assay type: functional, organism-based; details: time 19.0 day
A549 [7] = test: Induction of apoptosis in human normal (non-senescent) A549 cells assessed as late apoptotic cells at 1 uM incubated for 24 hrs by FITC/PI staining based flow cytometry analysis (reference value: 1.97%); assay type: functional
A549 [8] = test: Induction of apoptosis in human senescent A549 cells assessed as necrotic cells at 1 uM incubated for 24 hrs by FITC/PI staining based flow cytometry analysis (reference value: 0.15%); assay type: functional
A549 [9] = test: Effect on ARGAL level in etoposide-induced human senescent A549 cells at 50 nM incubated for 16 hrs by Proteomic analysis; assay type: functional, cell-based
A549 [10] = test: Antitumor activity against human A549 cells xenografted in SCID mouse assessed as increase in cleaved caspase-3 level in tumor at 20 mg/kg, sc administered daily for 19 days in presence of etoposide by IHC analysis; assay type: functional, organism-based; details: time 19.0 day
A549 [11] = test: Effect on BTBD8 level in etoposide-induced human senescent A549 cells at 50 nM incubated for 16 hrs by Proteomic analysis; assay type: functional, cell-based
A549 [12] = test: Induction of apoptosis in human senescent A549 cells assessed as viable cells at 1 uM incubated for 24 hrs by FITC/PI staining based flow cytometry analysis (reference value: 86.9%); assay type: functional; details: read-out: Activity
[13] = target: T1, Bromodomain-containing protein 4; test: Induction of BRD4 degradation in human U87 cells by SA-beta-Gal staining assay; assay type: cell-based
A549 [14] = test: Induction of apoptosis in human normal (non-senescent) A549 cells assessed as viable cells at 1 uM incubated for 24 hrs by FITC/PI staining based flow cytometry analysis (reference value: 94.6%); assay type: functional; details: read-out: Activity
A549 [15] = test: Antitumor activity against human A549 cells xenografted in SCID mouse assessed as decrease in p21 level in tumor at 20 mg/kg, sc administered daily for 19 days in presence of etoposide by IHC analysis; assay type: functional, organism-based; details: time 19.0 day
[16] = Toxicity in SCID mouse xenografted with human A549 cells change in body weight at 20 mg/kg, sc administered daily for 19 days; assay type: organism-based; details: in vivo, 456 h, time 19 day
A549 [17] = test: Induction of apoptosis in human senescent A549 cells assessed as early apoptotic cells at 1 uM incubated for 24 hrs by FITC/PI staining based flow cytometry analysis (reference value: 0.68%); assay type: functional
A549 [18] = test: Downregulation of BRD4 expression in etoposide-induced human senescent A549 cells at 50 nM incubated for 16 hrs by Proteomic analysis; assay type: functional, cell-based
[19] = Stability of the compound assessed as porcine liver esterase-mediated hydrolysis measured at 16 hrs by Real-time ultrafast liquid chromatography analysis; assay type: ADME, Sus scrofa; details: pig, isolated protein
[20] = target: T1, Bromodomain-containing protein 4; test: Induction of BRD4 degradation in human HeLa cells by SA-beta-Gal staining assay; assay type: cell-based
[21] = target: T1, Bromodomain-containing protein 4; test: Induction of BRD4 degradation in human A549 cells at 50 nM incubated for 16 hrs in presence of MG-132 by Western blot analysis; assay type: cell-based
[22] = Stability of the compound in fetal bovine serum incubated for 24 hrs by Real-tie ultrafast liquid chromatography analysis; assay type: ADME, cell-free, Bos taurus; details: cattle
A549 [23] = test: Antitumor activity against etoposide-induced human A549 cells xenografted in SCID mouse assessed as tumor growth inhibition at 20 mg/kg, sc administered daily for 19 days; assay type: functional, organism-based; details: time 19.0 day
[24] = target: T1, Bromodomain-containing protein 4; test: Induction of BRD4 degradation in etoposide-induced human senescent A549 cells at 100 nM pretreated with etoposide for 3 days followed by compound administration and measured after 15 mins by SA-beta-Gal staining assay; assay type: cell-based
[25] = target: T1, Bromodomain-containing protein 4; test: Induction of BRD4 degradation in etoposide-induced human senescent U87 cells by SA-beta-Gal staining assay; assay type: cell-based
A549 [26] = test: Induction of apoptosis in human normal (non-senescent) A549 cells assessed as early apoptotic cells at 1 uM incubated for 24 hrs by FITC/PI staining based flow cytometry analysis (reference value: 3.14%); assay type: functional
[27] = target: T1, Bromodomain-containing protein 4; test: Induction of BRD4 degradation in etoposide-induced human senescent A549 cells incubated for 16 hrs by Western blot analysis; assay type: cell-based
A549 [28] = test: Antitumor activity against human A549 cells xenografted in SCID mouse assessed as tumor growth inhibition at 20 mg/kg, sc administered daily for 19 days; assay type: functional; details: A549, 456 h, time 19 day, read-out: TGI
[29] = target: T1, Bromodomain-containing protein 4; test: Induction of BRD4 degradation in etoposide-induced human senescent HeLa cells by SA-beta-Gal staining assay; assay type: cell-based
A549 [30] = test: Induction of apoptosis in human normal (non-senescent) A549 cells assessed as necrotic cells at 1 uM incubated for 24 hrs by FITC/PI staining based flow cytometry analysis (reference value: 0.29%); assay type: functional
A549 [31] = test: Antiproliferative activity against human normal (non-senescent) A549 cells assessed as reduction in cell viability incubated for 72 hrs by CCK-8 assay; assay type: functional, cell-based; details: A549, 72 h
KARPAS-299 [32] = test: Antiproliferative activity against human senescent KARPAS-299 cells assessed as reduction in cell viability incubated for 72 hrs by CCK-8 assay; assay type: functional, cell-based; details: KARPAS-299, 72 h
[33] = target: T2, NPM/ALK (Nucleophosmin/ALK tyrosine kinase receptor) (Homo sapiens) (UniProt Q9UM73+P06748); test: Induction of NPM-ALK degradation in human normal (non-senescent) KARPAS-299 cells at 1 uM incubated for 16 hrs by Western blot analysis; assay type: cell-based
T2 sequence (P06748 whole entry partner): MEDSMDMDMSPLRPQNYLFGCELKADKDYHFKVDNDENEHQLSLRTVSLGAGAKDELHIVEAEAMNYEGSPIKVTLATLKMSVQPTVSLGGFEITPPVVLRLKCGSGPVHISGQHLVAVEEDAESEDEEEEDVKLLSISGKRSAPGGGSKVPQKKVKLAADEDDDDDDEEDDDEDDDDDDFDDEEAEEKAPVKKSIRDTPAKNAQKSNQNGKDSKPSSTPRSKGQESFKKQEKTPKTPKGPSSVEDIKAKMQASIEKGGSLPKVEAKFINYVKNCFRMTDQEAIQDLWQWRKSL
T2 sequence (Q9UM73 19-1620 limits assumed): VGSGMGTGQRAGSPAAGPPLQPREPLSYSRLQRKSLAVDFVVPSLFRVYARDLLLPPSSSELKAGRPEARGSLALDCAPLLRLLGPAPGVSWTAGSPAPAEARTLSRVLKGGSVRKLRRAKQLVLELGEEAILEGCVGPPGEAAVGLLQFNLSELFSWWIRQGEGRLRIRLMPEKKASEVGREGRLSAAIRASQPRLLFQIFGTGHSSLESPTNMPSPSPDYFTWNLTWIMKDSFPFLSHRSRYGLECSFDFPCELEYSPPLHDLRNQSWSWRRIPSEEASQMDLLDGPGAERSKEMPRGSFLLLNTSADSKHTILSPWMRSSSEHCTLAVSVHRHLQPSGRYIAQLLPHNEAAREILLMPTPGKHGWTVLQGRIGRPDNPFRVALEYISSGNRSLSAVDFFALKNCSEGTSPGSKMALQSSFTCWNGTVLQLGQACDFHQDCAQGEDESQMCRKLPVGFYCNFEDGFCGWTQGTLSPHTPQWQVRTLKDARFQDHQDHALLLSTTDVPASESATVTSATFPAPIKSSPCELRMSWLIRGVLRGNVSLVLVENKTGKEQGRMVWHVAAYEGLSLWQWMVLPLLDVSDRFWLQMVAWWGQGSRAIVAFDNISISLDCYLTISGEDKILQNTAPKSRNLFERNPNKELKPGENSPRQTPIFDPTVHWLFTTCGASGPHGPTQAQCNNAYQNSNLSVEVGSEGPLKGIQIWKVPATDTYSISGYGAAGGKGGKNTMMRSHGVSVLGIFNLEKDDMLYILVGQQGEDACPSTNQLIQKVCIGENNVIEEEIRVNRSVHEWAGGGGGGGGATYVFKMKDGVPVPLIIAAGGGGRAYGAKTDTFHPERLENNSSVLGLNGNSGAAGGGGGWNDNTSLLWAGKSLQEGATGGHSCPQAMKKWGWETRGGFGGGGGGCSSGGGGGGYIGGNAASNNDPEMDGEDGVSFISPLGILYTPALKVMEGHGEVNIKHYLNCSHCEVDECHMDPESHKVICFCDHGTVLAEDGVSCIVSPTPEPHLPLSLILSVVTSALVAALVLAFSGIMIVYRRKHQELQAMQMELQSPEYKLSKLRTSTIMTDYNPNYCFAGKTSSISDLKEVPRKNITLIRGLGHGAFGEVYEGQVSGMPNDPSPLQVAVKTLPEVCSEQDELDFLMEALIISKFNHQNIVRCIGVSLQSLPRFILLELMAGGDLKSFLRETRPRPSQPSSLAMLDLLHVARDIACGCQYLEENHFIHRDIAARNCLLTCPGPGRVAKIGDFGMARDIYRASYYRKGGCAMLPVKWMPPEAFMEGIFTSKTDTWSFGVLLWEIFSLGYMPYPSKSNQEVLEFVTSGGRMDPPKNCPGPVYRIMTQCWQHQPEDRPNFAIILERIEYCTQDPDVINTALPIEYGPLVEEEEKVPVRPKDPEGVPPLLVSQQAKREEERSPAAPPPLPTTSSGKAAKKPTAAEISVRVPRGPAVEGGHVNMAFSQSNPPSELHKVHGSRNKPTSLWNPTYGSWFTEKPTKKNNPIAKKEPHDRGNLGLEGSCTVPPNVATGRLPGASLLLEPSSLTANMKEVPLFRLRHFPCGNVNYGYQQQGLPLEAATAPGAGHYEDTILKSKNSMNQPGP

KARPAS-299 [34] = test: Antiproliferative activity against human normal (non-senescent) KARPAS-299 cells assessed as reduction in cell viability incubated for 72 hrs by CCK-8 assay; assay type: functional, cell-based; details: KARPAS-299, 72 h
KARPAS-299 [35] = test: Senolytic index, ratio of IC50 for antiproliferative activity against human normal (non-senescent) KARPAS-299 cells assessed as reduction in cell viability to IC50 for antiproliferative activity against human senescent KARPAS-299 cells assessed as reduction in cell viability; assay type: functional
[36] = target: T2, NPM/ALK (Nucleophosmin/ALK tyrosine kinase receptor) (Homo sapiens); test: Induction of NPM-ALK degradation in human senescent KARPAS-299 cells at 1 uM incubated for 16 hrs by Western blot analysis; assay type: cell-based
[37] = target: T1, Bromodomain-containing protein 4; test: Induction of BRD4 degradation in human normal (non-senescent) A549 cells at 50 to 100 nM by SA-beta-Gal staining assay; assay type: cell-based; details: dose 50-100 nM

Row | Compound | Activity (A549 [1]) [%] | Activity [2] | Ratio IC50 (A549 [3]) | IC50 (A549 [5]) [nM] | Activity (A549 [7]) [%] | Activity (A549 [8]) [%] | viability at 1 µM (A549 [12]) [%] | viability at 1 µM (A549 [14]) [%] | Activity [16] | Activity (A549 [17]) [%] | Activity [21] | Activity (A549 [26]) [%] | inhibition in vivo at 20 mg/kg (A549 [28]) [%] | Activity (A549 [30]) [%] | IC50 (A549 [31]) [nM] | IC50 (KARPAS-299 [32]) [nM] | IC50 (KARPAS-299 [34]) [nM] | Ratio IC50 (KARPAS-299 [35]) | Activity [36] | other results
1 | CC(=O)OC[C@H]1O[C@@H](Oc2ccc(COC(=O)O[C@@H]3C[C@@H](C(=O)N[C@@H](C)c4ccc(-c5scnc5C)cc4)N(C(=O)[C@@H](NC(=O)COCCCOCCNC(=O)C[C@@H]4N=C(c5ccc(Cl)cc5)c5c(sc(C)c5C)-n5c(C)nnc54)C(C)(C)C)C3)cc2)[C@H](OC(C)=O)[C@@H](OC(C)=O)[C@H]1OC(C)=O | 14.8 | Active | 5.17 | 354 | 4.72 | 0.1 | 68.3 | 86.5 | Non-Toxic | 16.7 | Active | 8.07 | 80 | 0.68 | 3290 |  |  |  |  | Activity (A549 [4]): Active; Activity (A549 [6]): Active; Activity (A549 [9]): Active; Activity (A549 [10]): Active; Activity (A549 [11]): Active; Activity [13]: Active; Activity (A549 [15]): Active; Activity (A549 [18]): Active; Stability [19]: Stable; Activity [20]: Active; Stability [22]: Stable; TGI (A549 [23]): Active; Activity [24]: Active; Activity [25]: Active; DC50 [27]: 18.3 nM; Activity [29]: Active
2 | CC(=O)OC[C@H]1O[C@@H](Oc2ccc(COC(=O)O[C@@H]3C[C@@H](C(=O)N[C@@H](C)c4ccc(-c5scnc5C)cc4)N(C(=O)[C@@H](NC(=O)CCCC(=O)N4CCC(c5cc(OC(C)C)c(Nc6ncc(Cl)c(Nc7ccccc7S(=O)(=O)C(C)C)n6)cc5C)CC4)C(C)(C)C)C3)cc2)[C@H](OC(C)=O)[C@@H](OC(C)=O)[C@H]1OC(C)=O |  |  |  |  |  |  |  |  |  |  |  |  |  |  |  | 455 | 2160 | 4.75 | Active | Activity [33]: inactive
3 | Cc1cc(Nc2ncc(Cl)c(Nc3ccccc3S(=O)(=O)C(C)C)n2)c(OC(C)C)cc1C1CCN(C(=O)CCCC(=O)N[C@H](C(=O)N2C[C@H](O)C[C@H]2C(=O)N[C@@H](C)c2ccc(-c3scnc3C)cc2)C(C)(C)C)CC1 |  |  |  |  |  |  |  |  |  |  |  |  |  |  |  | 232 | 369 | 1.59 | Active | 
4 | Cc1ncsc1-c1ccc([C@H](C)NC(=O)[C@@H]2C[C@@H](O)CN2C(=O)[C@@H](NC(=O)COCCCOCCNC(=O)C[C@@H]2N=C(c3ccc(Cl)cc3)c3c(sc(C)c3C)-n3c(C)nnc32)C(C)(C)C)cc1 | 14.2 | Active | 0.59 | 603 | 6.76 | 0.09 | 68.7 | 72.2 | Non-Toxic | 17 | Active | 20.1 | 74 | 0.98 | 640 |  |  |  |  | Activity [37]: Active
